According to patent publication US20260070924A1, “INDAZOLE MACROCYCLES AND THEIR USE” (BLOSSOMHILL THERAPEUTICS, INC., priority 2022, published 2026):

Key:
Test in all cases: Cell proliferation panel (CellTiter-Glo 2.0, 5 days)
Assay type in all cases: cell-based
MCF7 = conditions: Breast adenocarcinoma
Procedure: (§1) Cell proliferation assay was carried out in a panel of 108 cell lines. 1000 (attached cells) or 3000 (suspension cells) cells/100 μl per well were seeded in 96 well black plate with a clear bottom (Corning #3904). Compounds were added using Tecan D300e Digital Dispenser in 1:3 titration for 9 doses. Plates were incubated for 5 days at 37° C. and 5% CO2. Cell proliferation was measured using CellTiter-Glo 2.0 luciferase-based ATP detection assay (Promega, Madison, WI) at 50 μl per well following the manufacturer's protocol. Plates were then read on a TECAN Sparks multimode microplate reader. Data was analyzed using GraphPad Prism 9 (GraphPad Software, San Diego, CA) to obtain IC50 values. IC50 values were determined using Prism software (GraphPad Software, San Diego, CA).

GP2D = conditions: Colon adenocarcinoma
Procedure: as §1

HGC-27 = conditions: Gastric carcinoma
Procedure: as §1

SU-DHL-6 = conditions: Diffuse Large B Cell Lymphoma
Procedure: as §1

SK-LU-1 = conditions: Lung adenocarcinoma NSCLC
Procedure: as §1

TF-1 = conditions: Erythroleukemia
Procedure: as §1

KASUMI-1 = conditions: Acute myeloblastic leukemia
Procedure: as §1

COLO320 = conditions: Colorectal adenocarcinoma
Procedure: as §1

A549 = conditions: Lung carcinoma, NSCLC
Procedure: as §1

H358 = conditions: Bronchioalveolar carcinoma NSCLC
Procedure: as §1

HCC1419 = test system: HCC1419
Procedure: as §1

Hs746T = conditions: Gastric carcinoma
Procedure: as §1

HCC78 = conditions: Non-small cell lung carcinoma
Procedure: as §1

KP-N-RT-BM-1 = conditions: Neuroblastoma
Procedure: as §1

H446 = conditions: Small cell lung carcinoma
Procedure: as §1

SK-N-SH = conditions: Neuroblastoma
Procedure: as §1

TOV-112D = conditions: Endometrioid ovarian cancer
Procedure: as §1

H2122 = conditions: Lung adenocarcinoma NSCLC
Procedure: as §1

LNCaP = conditions: Prostate carcinoma
Procedure: as §1

HCT116 = conditions: Colorectal adenocarcinoma
Procedure: as §1

DLD1 = conditions: Colorectal adenocarcinoma
Procedure: as §1

MOLM-1 = conditions: Chronic myeloid leukemia
Procedure: as §1

SK-N-AS = conditions: Neuroblastoma
Procedure: as §1

Kelly = conditions: Neuroblastoma
Procedure: as §1

KCL22R = conditions: Chronic Myelogenous Leukemia
Procedure: as §1

PC-9 = conditions: Lung adenocarcinoma NSCLC
Procedure: as §1

AU565 = conditions: Breast adenocarcinoma
Procedure: as §1

H1792 = conditions: Lung adenocarcinoma NSCLC
Procedure: as §1

H1975 = conditions: Lung adenocarcinoma NSCLC
Procedure: as §1

H23 = conditions: Lung adenocarcinoma NSCLC
Procedure: as §1

ZR-75-1 = conditions: Mammary gland ductal carcinoma
Procedure: as §1

PANC0403 = conditions: Pancreatic adenocarcinoma
Procedure: as §1

SW620 = conditions: Colorectal adenocarcinoma
Procedure: as §1

CHP-212 = conditions: Neuroblastoma
Procedure: as §1

KG-1 = conditions: Acute myelogenous leukemia
Procedure: as §1

BJ = conditions: Skin fibroblast
Procedure: as §1

U87 MG = conditions: Glioblastoma
Procedure: as §1

COR-L23 = conditions: Large cell lung carcinoma
Procedure: as §1

JPC3 = conditions: Lung carcinoma
Procedure: as §1

JeKo-1 = conditions: Mantle cell lymphoma
Procedure: as §1

SW1990 = conditions: Pancreatic adenocarcinoma
Procedure: as §1

SKNO-1 = conditions: Acute myeloid leukemia
Procedure: as §1

H1688 = conditions: Small cell lung carcinoma
Procedure: as §1

SW480 = conditions: Colorectal adenocarcinoma
Procedure: as §1

KASUMI-3 = conditions: Acute myeloblastic leukemia
Procedure: as §1

H2444 = conditions: Lung adenocarcinoma NSCLC
Procedure: as §1

NB-1 = conditions: Neuroblastoma
Procedure: as §1

- IC50 (MCF7): 75.9 nM
- IC50 (SU-DHL-6): 28.4 nM
- IC50 (SK-LU-1): 166 nM
- IC50 (COLO320): 85.2 nM
- IC50 (A549): 67.7 nM
- IC50 (H358): 148 nM
- IC50 (HCC1419): 83.8 nM
- IC50 (HCC78): 42.7 nM
- IC50 (H446): 112 nM
- IC50 (SK-N-SH): 21.7 nM
- IC50 (H2122): 73.7 nM
- IC50 (LNCaP): 136 nM
- IC50 (HCT116): 60.2 nM
- IC50 (DLD1): 48.7 nM
- IC50 (MOLM-1): 80.5 nM
- IC50 (SK-N-AS): 77.2 nM
- IC50 (PC-9): 164 nM
- IC50 (H1792): 121 nM
- IC50 (H1975): 87.2 nM
- IC50 (PANC0403): 220 nM
- IC50 (SW620): 76.5 nM
- IC50 (U87 MG): 89.2 nM
- IC50 (SW1990): 104 nM
- IC50 (SKNO-1): 23.3 nM
- IC50 (H1688): 116 nM
- IC50 (SW480): 90.5 nM
- IC50 (H2444): 117 nM
Structure (SMILES): CCc1nn(C)c2c1/C=C/c1n[nH]c3ccc(cc13)-c1cnn(C)c1OCCN(C)C2=O [Ex. 6, (17E)-16-ethyl-8,12,14-trimethyl-2,11,12,14-tetrahydro-8H-3,5-ethenotripyrazolo[3,4-f:3′,4′-j:4″,3″-n][1,4]oxazacyclopentadecin-13(10H)-one]
- IC50 (GP2D): 121 nM
- IC50 (HGC-27): 100 nM
- IC50 (TF-1): 57.6 nM
- IC50 (KASUMI-1): 14 nM
- IC50 (Hs746T): 183 nM
- IC50 (KP-N-RT-BM-1): 15.1 nM
- IC50 (TOV-112D): 62.5 nM
- IC50 (Kelly): 51.5 nM
- IC50 (KCL22R): 64.8 nM
- IC50 (AU565): 25.5 nM
- IC50 (H23): 88.8 nM
- IC50 (ZR-75-1): 144 nM
- IC50 (CHP-212): 27.4 nM
- IC50 (KG-1): 153 nM
- IC50 (BJ): 516 nM
- IC50 (COR-L23): 98.4 nM
- IC50 (JPC3): 171 nM
- IC50 (JeKo-1): 20.6 nM
- IC50 (KASUMI-3): 43.3 nM
- IC50 (NB-1): 45 nM
